Source: ChEMBL document CHEMBL1944604, “Aminopurine based JNK inhibitors for the prevention of ischemia reperfusion injury” (Bioorg Med Chem Lett, 2012)

Tests used:
[1] = AUC in rat at 2 to 10 mg/kg, iv bolus; type: ADME, organism-based; set-up: dose 2-10 mg/kg, route intravenous; settings: plasma
[2] = tested on: Rattus norvegicus; experiment: Antiischemic activity in Lewis rat ischemia reperfusion model assessed as increase in survival rate at 10 mg/kg, iv bolus administered 15 mins before ischemia challenge relative to control; type: functional
[3] = biological target: c-Jun N-terminal kinase, JNK (Homo sapiens, UniProt P45983+P53779+P45984); experiment: Inhibition of JNK-mediated cJun phosphorylation in anisomysin-stimulated human Jurkat T cells pretreated for 30 mins before anisomysin stimulation measured after 10 mins by DELFIA assay; type: cell-based
[4] = Volume of distribution at steady state in dog at 1 mg/kg, iv bolus; type: ADME, organism-based, Canis lupus familiaris; set-up: dose 1 mg/kg, route intravenous; settings: in vivo, read-out: Vdss
[5] = AUC in cynomolgus monkey at 1 mg/kg, iv bolus; type: ADME, organism-based, Macaca fascicularis; set-up: dose 1 mg/kg, route intravenous; settings: plasma
[6] = biological target: Mitogen-activated protein kinase 8 (Homo sapiens, UniProt P45983); experiment: Inhibition of full length Hexa-His-tagged JNK1 using GST-tagged cJun and [gamma33P]ATP as substrate after 60 mins by scintillation counting
Chain of Mitogen-activated protein kinase 8 (P45983 whole entry): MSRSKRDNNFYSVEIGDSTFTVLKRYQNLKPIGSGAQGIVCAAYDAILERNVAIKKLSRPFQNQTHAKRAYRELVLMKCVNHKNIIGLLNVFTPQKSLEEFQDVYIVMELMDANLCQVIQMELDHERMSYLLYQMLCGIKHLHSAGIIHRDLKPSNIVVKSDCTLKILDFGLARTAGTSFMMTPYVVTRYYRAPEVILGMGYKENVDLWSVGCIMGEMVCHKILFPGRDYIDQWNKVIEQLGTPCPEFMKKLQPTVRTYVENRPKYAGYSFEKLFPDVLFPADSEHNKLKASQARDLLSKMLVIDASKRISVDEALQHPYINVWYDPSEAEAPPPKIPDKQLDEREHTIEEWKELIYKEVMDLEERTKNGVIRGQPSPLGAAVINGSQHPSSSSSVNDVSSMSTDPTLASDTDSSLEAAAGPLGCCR

[7] = biological target: CYP3A4 (Homo sapiens, UniProt P08684); experiment: Drug metabolism assessed as CYP3A4-mediated compound loss after 30 mins; type: ADME; settings: recombinant enzyme; read-out: Drug metabolism
Chain of CYP3A4 (P08684 whole entry): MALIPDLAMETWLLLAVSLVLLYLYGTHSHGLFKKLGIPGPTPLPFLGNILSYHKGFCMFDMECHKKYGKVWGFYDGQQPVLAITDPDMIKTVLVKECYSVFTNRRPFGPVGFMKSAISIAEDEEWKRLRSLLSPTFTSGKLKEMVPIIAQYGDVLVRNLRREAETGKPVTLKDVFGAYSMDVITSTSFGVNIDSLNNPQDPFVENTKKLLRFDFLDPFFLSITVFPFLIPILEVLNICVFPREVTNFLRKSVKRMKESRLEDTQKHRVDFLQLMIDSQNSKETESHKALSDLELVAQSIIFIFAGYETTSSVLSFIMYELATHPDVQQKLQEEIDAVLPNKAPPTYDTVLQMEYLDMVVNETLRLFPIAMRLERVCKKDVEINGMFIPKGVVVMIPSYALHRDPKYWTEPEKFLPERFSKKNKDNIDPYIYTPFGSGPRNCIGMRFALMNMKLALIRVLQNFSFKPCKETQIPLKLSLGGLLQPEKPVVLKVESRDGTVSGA

[8] = Volume of distribution at steady state in cynomolgus monkey at 1 mg/kg, iv bolus; type: ADME, organism-based, Macaca fascicularis; set-up: dose 1 mg/kg, route intravenous; settings: in vivo, read-out: Vdss
[9] = tested on: Hepatocyte; experiment: Drug metabolism in human hepatocytes after 60 mins; type: ADME, cell-based; settings: 1 h
[10] = tested on: Rattus norvegicus; experiment: Toxicity in rat non-anesthetized rat at 10 mg/kg, iv infusion administered 4 hrs for 4 consecutive days; type: organism-based; set-up: dose 10 mg/kg, route intravenous; settings: in vivo
[11] = tested on: Rattus norvegicus; experiment: Antiischemic activity in Lewis rat ischemia reperfusion model assessed as increase in survival rate at 3 mg/kg, iv bolus administered 15 mins before ischemia challenge relative to control; type: functional
[12] = Metabolic stability of the compound in mouse liver microsomes assessed as compound remaining at 3 uM after 30 mins; type: ADME, Microsome; settings: read-out: Stability
[13] = Clearance in rat at 2 to 10 mg/kg, iv; type: ADME, organism-based; set-up: dose 2-10 mg/kg, route intravenous; settings: in vivo
[14] = AUC in rat at 10 mg/kg, iv infusion; type: ADME, organism-based; set-up: dose 10 mg/kg, route intravenous; settings: plasma
[15] = biological target: Mitogen-activated protein kinase 9 (Homo sapiens, UniProt P45984); experiment: Inhibition of full length Hexa-His-tagged JNK2 using GST-tagged cJun and [gamma33P]ATP as substrate after 60 mins by scintillation counting
Chain of Mitogen-activated protein kinase 9 (P45984 whole entry): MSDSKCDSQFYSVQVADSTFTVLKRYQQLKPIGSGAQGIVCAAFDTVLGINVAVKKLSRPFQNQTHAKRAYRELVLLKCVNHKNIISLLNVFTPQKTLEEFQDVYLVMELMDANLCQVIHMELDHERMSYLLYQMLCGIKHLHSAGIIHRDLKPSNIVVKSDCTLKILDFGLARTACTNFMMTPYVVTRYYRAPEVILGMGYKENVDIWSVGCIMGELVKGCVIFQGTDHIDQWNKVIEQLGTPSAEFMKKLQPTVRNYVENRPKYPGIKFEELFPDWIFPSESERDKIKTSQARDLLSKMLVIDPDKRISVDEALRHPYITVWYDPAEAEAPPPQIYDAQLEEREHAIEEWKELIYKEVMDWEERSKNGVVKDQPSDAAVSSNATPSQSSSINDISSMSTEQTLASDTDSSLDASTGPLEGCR

SMILES: N[C@H]1CC[C@H](Nc2ncc3nc(Nc4ccc(F)cc4F)n(C4CCCC4)c3n2)CC1
- AUC [1]: 4.7 µM·h
- survival at 10 mg/kg [2]: 80%
- IC50 [3]: 350 nM
- Vd [4]: 30 L/kg
- AUC [5]: 7 µM·h
- IC50 [6]: 270 nM
- metabolised at 0.5 h [7]: 10%
- Vd [8]: 11 L/kg
- Drug metabolism [9]: Not Active
- Activity [10]: Non-toxic
- survival at 3 mg/kg [11]: 60%
- remaining at 0.5 h, 3 µM [12]: 100%
- clearance [13]: 66 mL/min/kg
- AUC [14]: 3.8 µM·h
- IC50 [15]: 25 nM
